Type in all cases: cell-based
Assay [1] deals with Haemophilis influenzae DILL AMP R. The assay can be described thus: In vitro agar dilution MIC, organism code WW. The conditions noted are these: unit assumed. As to the method:
(§1) Representative compounds of the present invention were assayed in vitro for antibacterial activity as follows: Twelve petri dishes containing successive aqueous dilutions of the test compound mixed with 10 mL of sterilized Brain Heart Infusion (BHI) agar (Difco 0418-01-5) were prepared. Each plate was inoculated with 1:100 (or 1:10 for slow-growing strains, such as Micrococcus and Streptococcus) dilutions of up to 32 different microorganisms, using a Steers replicator block. The inoculated plates were incubated at 35-37° C. for 20 to 24 hours. In addition, a control plate, using BHI agar containing no test compound, was prepared and incubated at the beginning and end of each test.
(§2) An additional plate containing a compound having known susceptibility patterns for the organisms being tested and belonging to the same antibiotic class as the test compound was also prepared and incubated as a further control, as well as to provide test-to-test comparability.
(§3) After incubation, each plate was visually inspected. The minimum inhibitory concentration (MIC) was defined as the lowest concentration of drug yielding no growth, a slight haze, or sparsely isolated colonies on the inoculum spot as compared to the growth control.

In assay [2] the test system is Streptococcus pyogenes PIU 2548. The assay can be described thus: In vitro agar dilution MIC, organism code NN. The conditions noted are these: unit assumed. On the procedure:
as §1, §2, §3

For assay [3], the system named is Staphylococcus aureus A-5278. The assay can be described thus: In vitro agar dilution MIC, organism code CC. As to conditions: Table 1C, unit assumed. On the procedure:
as §1, §2, §3

The test system of assay [4] is Streptococcus pneumoniae 5979. The assay is described as follows: In vitro agar dilution MIC, organism code ZZ. The conditions noted are these: unit assumed. On the procedure:
as §1, §2, §3

Assay [5] deals with Staphylococcus aureus A5177. The assay can be described thus: In vitro agar dilution MIC, organism code BB. As to conditions: Table 1C, in µg/mL (unit assumed). On the procedure: as §1, §2, §3
Assay [6] relates to Streptococcus pyogenes EES61. The assay can be described thus: In vitro agar dilution MIC, organism code LL. The conditions noted are these: unit assumed. As to the method: as §1, §2, §3
For assay [7], the system named is Streptococcus pneumoniae 5649. The assay is described as follows: In vitro agar dilution MIC, organism code ZZA. The conditions noted are these: unit assumed. As to the method: as §1, §2, §3
In assay [8] the test system is Streptococcus pyogenes 930. The assay can be described thus: In vitro agar dilution MIC, organism code MM. The conditions noted are these: unit assumed. As to the method: as §1, §2, §3
Assay [9] deals with Staphylococcus aureus ATCC 6538P. The assay is described as follows: In vitro agar dilution MIC, organism code AA. As to conditions: Table 1C, unit assumed. On the procedure: as §1, §2, §3
Assay [10] concerns Streptococcus pneumoniae ATCC 6303. The assay can be described thus: In vitro agar dilution MIC, organism code XX. As to conditions: unit assumed. As to the method: as §1, §2, §3

Our source for the MIC values is patent US6124269A, “2-Halo-6-O-substituted ketolide derivatives” (priority 1998, dated 2000).

Converted amounts (≈) assume the structure as drawn.

On to `CC[C@H]1OC(=O)[C@H](C)C(=O)[C@H](C)[C@@H](O[C@@H]2O[C@H](C)C[C@H](N(C)C)[C@H]2O)[C@](C)(OC)C[C@@H](C)C2=NCCN3C(=O)O[C@@]1(C)[C@H]3[C@H]2C` [Standard (X is H), reference compound], for which the MIC was 4 µg/mL (≈ 6.27 µM) in [1] (Table 1C); 0.39 µg/mL (≈ 0.611 µM) in assay [2] (Table 1C); over 100 µg/mL in assay [3]; over 128 µg/mL in assay [4] (Table 1C); 0.2 in assay [5]; 0.02 µg/mL (≈ 0.0314 µM) in assay [6] (Table 1C). Moreover, the MIC in assay [7] (Table 1C) was 0.5 µg/mL (≈ 0.784 µM); in assay [8] (Table 1C), over 100 µg/mL; in [9], 0.2 µg/mL (≈ 0.314 µM); in assay [10] (Table 1C), 0.06 µg/mL (≈ 0.0941 µM).

In the case of `CC[C@H]1OC(=O)[C@H](C)C(=O)[C@H](C)[C@@H](O[C@@H]2O[C@H](C)C[C@H](N(C)C)[C@H]2O)[C@](C)(OC/C=C/c2cnc3ccccc3c2)C[C@@H](C)C(=O)[C@H](C)[C@H]2NC(=O)O[C@@]21C` [Standard A, reference compound], the MIC in assay [1] (Table 1D) turned out to be 2 µg/mL (≈ 2.61 µM); in [2] (Table 1D), 0.25 µg/mL (≈ 0.326 µM); in [4] (Table 1D), 16 µg/mL (≈ 20.9 µM); in [6] (Table 1D) it was 0.03 µg/mL (≈ 0.0392 µM); in assay [7] (Table 1D) it was 0.25 µg/mL (≈ 0.326 µM); in assay [8] (Table 1D), 1 µg/mL (≈ 1.31 µM). The MIC in assay [10] (Table 1D) amounted to 0.03 µg/mL (≈ 0.0392 µM).

Consider `CC[C@H]1OC(=O)[C@H](C)C(=O)[C@H](C)[C@@H](O[C@@H]2O[C@H](C)C[C@H](N(C)C)[C@H]2O)[C@](C)(OC/C=C/c2ccccc2)C[C@@H](C)C(=O)[C@H](C)[C@H]2NC(=O)O[C@@]21C` [Standard B, reference compound], for which the MIC in assay [1] (Table 1D) is 4 µg/mL (≈ 5.6 µM); in assay [2] (Table 1D), 0.25 µg/mL (≈ 0.35 µM); in [4] (Table 1D), 128 µg/mL (≈ 179 µM); in assay [6] (Table 1D), 0.03 µg/mL (≈ 0.042 µM); in assay [7] (Table 1D), 0.25 µg/mL (≈ 0.35 µM); in [8] (Table 1D) it was 64 µg/mL (≈ 89.5 µM). The compound further registered an MIC in assay [10] (Table 1D) of 0.03 µg/mL (≈ 0.042 µM).

As to `CC[C@H]1OC(=O)[C@H](C)C(=O)[C@H](C)[C@@H](O[C@@H]2O[C@H](C)C[C@H](N(C)C)[C@H]2O)[C@](C)(OC/C=C/c2ccc3nccnc3c2)C[C@@H](C)C(=O)[C@H](C)[C@H]2NC(=O)O[C@@]21C` [Standard C, reference compound], the MIC in [1] (Table 1D) turned out to be 2 µg/mL (≈ 2.61 µM); in assay [2] (Table 1D), 0.25 µg/mL (≈ 0.326 µM); in [4] (Table 1D) it was 64 µg/mL (≈ 83.4 µM); in assay [6] (Table 1D) it was 0.03 µg/mL (≈ 0.0391 µM); in assay [7] (Table 1D), 0.5 µg/mL (≈ 0.652 µM); in [8] (Table 1D), 1 µg/mL (≈ 1.3 µM). The MIC in assay [10] (Table 1D) worked out at 0.015 µg/mL (≈ 0.0196 µM).
